Literature values as cited in article PMC7000732, “Bridging non-overlapping reads illuminates high-order epistasis between distal protein sites in a GPCR” (Nature Communications, 2020).

Parameters: method as in doi:10.1016/0584-8539(95)01421-P
Conditions: cited from earlier work

## O=C1OC2(c3ccc(O)cc3Oc3cc(O)ccc32)c2ccccc21 [Fluorescein]
  pKa of the dianion: 6.43
